Structures can show the parent of a compound that is named as a salt. Where two headings read alike, the source gives them in different places.
Test system: Normal Human Serum (NHS)
Assay: Hemolysis assay: lysis of rabbit erythrocytes (RE) by Normal Human Serum (NHS)
Format: cell-based
Conditions: rabbit erythrocyte, 0.5 h, GVB0 plus 10 mM Mg-EGTA, 37° C.
Procedure: The hemolysis assay was previously described by G. Ruiz-Gomez, et al., J. Med. Chem. (2009) 52: 6042-6052. Prior to the assay, the optimum concentration of Normal Human Serum (NHS) needed to achieve 100% lysis of rabbit erythrocytes (RE) is determined by titration. In the assay, NHS (Complement Technology) is diluted in GVB^0 Buffer (0.1% gelatin, 5 mM Veronal, 145 mM NaCl, 0.025% NaN3, pH 7.3, Complement Technology) plus 10 mM Mg-EGTA and incubated with test compound at various concentrations for 15 minutes at 37° C. RE (Complement Technology) freshly suspended in GVB^0 plus 10 mM Mg-EGTA are added to a final concentration of 1×10^8 cells/mL and reactions are incubated for 30 minutes at 37° C. Positive control reactions (100% lysis) consist of GVB^0 plus 10 mM Mg-EGTA with NHS and RE but without test compound; negative control reactions (0% lysis) consist of GVB^0 plus 10 mM Mg-EGTA with RE only. Samples are centrifuged at 2000 g for 3 minutes and supernatants collected. Absorbance at 405 nm (A405) is recorded using a microplate spectrophotometer. IC50 values are calculated by nonlinear regression from the percentage of hemolysis as a function of test compound concentration.

[1] = Table 1, hemolysis of rabbit erythrocytes with NHS, read-out: IC50
[2] = Table 2, hemolysis of rabbit erythrocytes with NHS, read-out: IC50 (Stars)
[3] = Table 3, hemolysis of rabbit erythrocytes with NHS, read-out: IC50 (Stars)

`COc1cc2c(N)nc(N3CCN(C(=O)CC4NCCS4)CC3)nc2c(F)c1OC` (stereo not shown) [Compound 1, 1-(4-(4-Amino-8-fluoro-6,7-dimethoxyquinazolin-2-yl)piperazin-1-yl)-2-(thiazolidin-2-yl)ethan-1-one Hydrochloride] was tested. Which IC50 [1] did it give?
The IC50 was greater than 10 µM.

Which IC50 [1] does the source give for `COc1cc2c(N)nc(N3CCN(C(=O)C[C@@H]4C[C@@H]5CCC[C@@H]5N4)CC3)nc2c(F)c1OC` [Compound 2, 1-(4-(4-Amino-8-fluoro-6,7-dimethoxyquinazolin-2-yl)piperazin-1-yl)-2-((2S,3aS,6aS)-octahydrocyclopenta[b]pyrrol-2-yl)ethan-1-one Hydrochloride] here?
The IC50 was less than 1 µM.

`COc1cc2c(N)nc(N3CCN(C(=O)C[C@@H]4C[C@@H]5CCCC[C@@H]5N4)CC3)nc2c(F)c1OC` [Compound 3, 1-(4-(4-Amino-8-fluoro-6,7-dimethoxyquinazolin-2-yl)piperazin-1-yl)-2-((2S,3aS,7aS)-octahydro-1H-indol-2-yl)ethan-1-one Hydrochloride] was tested. Which IC50 [1] did it give?
The IC50 was less than 1 µM.

`CCN[C@H](CC(=O)N1CC=C(c2nc(N)c3cc(OC)c(OC)c(F)c3n2)CC1)c1ccc(F)cc1` [Compound 4, (R)-1-(4-(4-Amino-8-fluoro-6,7-dimethoxyquinazolin-2-yl)-3,6-dihydropyridin-1(2H)-yl)-3-(ethylamino)-3-(4-fluorophenyl)propan-1-one] was tested. Which IC50 [1] did it give?
The IC50 was less than 1 µM.

How did the IC50 [1] turn out when `CCN[C@H](CC(=O)N1CCC(c2nc(N)c3cc(OC)c(OC)c(F)c3n2)CC1)c1ccc(F)cc1` [Compound 5, (R)-1-(4-(4-Amino-8-fluoro-6,7-dimethoxyquinazolin-2-yl)piperidin-1-yl)-3-(ethylamino)-3-(4-fluorophenyl)propan-1-one] was run?
The IC50 was 1 to 10 µM.

Which IC50 [1] does the source give for `CCN[C@H](CC(=O)N1CCC(c2nc(N)c3cc(OC)c(OC)c(F)c3n2)=C(C(=O)OC)C1)c1ccc(F)cc1` [Compound 6, Methyl (R)-4-(4-amino-8-fluoro-6,7-dimethoxyquinazolin-2-yl)-1-(3-(ethylamino)-3-(4-fluorophenyl)propanoyl)-1,2,5,6-tetrahydropyridine-3-carboxylate] here?
The IC50 was 1 to 10 µM.

For `CCN[C@H](CC(=O)N1CCC(c2nc(N)c3cc(OC)c(OC)c(F)c3n2)C(C(=O)OC)C1)c1ccc(F)cc1` (stereo partly drawn) [Compound 7, Methyl 4-(4-amino-8-fluoro-6,7-dimethoxyquinazolin-2-yl)-1-((R)-3-(ethylamino)-3-(4-fluorophenyl)propanoyl)piperidine-3-carboxylate], which IC50 [1] is on record?
The IC50 was greater than 10 µM.

`CCN[C@H](CC(=O)N1CCC(c2nc(N)c3cc(OC)c(OC)c(F)c3n2)=C(C(=O)O)C1)c1ccc(F)cc1` [Compound 8, (R)-4-(4-Amino-8-fluoro-6,7-dimethoxyquinazolin-2-yl)-1-(3-(ethylamino)-3-(4-fluorophenyl)propanoyl)-1,2,5,6-tetrahydropyridine-3-carboxylic Acid] was tested. Which IC50 [1] did it give?
The IC50 was greater than 10 µM.

With `CCN[C@H](CC(=O)N1CCC(c2nc(N)c3cc(OC)c(OC)c(F)c3n2)C(C(=O)O)C1)c1ccc(F)cc1` (stereo partly drawn) [Compound 9, 4-(4-Amino-8-fluoro-6,7-dimethoxyquinazolin-2-yl)-1-((R)-3-(ethylamino)-3-(4-fluorophenyl)propanoyl)piperidine-3-carboxylic acid] as the compound, how does the IC50 [1] read?
The IC50 was 1 to 10 µM.

For `CCN[C@H](CC(=O)N1C(C)C=C(c2nc(N)c3cc(OC)c(OC)c(F)c3n2)CC1C)c1ccc(F)cc1` (stereo partly drawn) [Compound 10, (3R)-1-(4-(4-Amino-8-fluoro-6,7-dimethoxyquinazolin-2-yl)-2,6-dimethyl-3,6-dihydropyridin-1(2H)-yl)-3-(ethylamino)-3-(4-fluorophenyl)propan-1-one], which IC50 [1] is on record?
The IC50 was less than 1 µM.

With `CCN[C@H](CC(=O)N1CCN(c2nc(N)c3cc4c(c(F)c3n2)OC(F)(F)O4)CC1)c1ccc(F)cc1` [Compound 12, (R)-1-(4-(8-Amino-2,2,4-trifluoro-[1,3]dioxolo[4,5-g]quinazolin-6-yl)piperazin-1-yl)-3-(ethylamino)-3-(4-fluorophenyl)propan-1-one] as the compound, how does the IC50 [1] read?
Its IC50 is 1 to 10 µM.

With `CCN[C@H](CC(=O)N1CC2CCC(C1)N2c1nc(N)c2cc(OC)c(OC)c(F)c2n1)c1ccc(F)cc1` [Compound 13, (3R)-1-(8-(4-Amino-8-fluoro-6,7-dimethoxyquinazolin-2-yl)-3,8-diazabicyclo[3.2.1]octan-3-yl)-3-(ethylamino)-3-(4-fluorophenyl)propan-1-one] as the compound, how does the IC50 [1] read?
The IC50 was less than 1 µM.

With `COc1cc2c(N)nc(N3CC4CCC(C3)N4C(=O)C=Cc3ccc(F)cc3)nc2c(F)c1OC` [Compound 14, 1-(3-(4-Amino-8-fluoro-6,7-dimethoxyquinazolin-2-yl)-3,8-diazabicyclo[3.2.1]octan-8-yl)-3-(4-fluorophenyl)prop-2-en-1-one] as the compound, how does the IC50 [1] read?
The IC50 was greater than 10 µM.

For `CCN[C@H](CC(=O)N1CC2CCC1CN2c1nc(N)c2cc(OC)c(OC)c(F)c2n1)c1ccc(F)cc1` (stereo partly drawn) [Compound 15, (3R)-1-(5-(4-Amino-8-fluoro-6,7-dimethoxyquinazolin-2-yl)-2,5-diazabicyclo[2.2.2]octan-2-yl)-3-(ethylamino)-3-(4-fluorophenyl)propan-1-one], which IC50 [1] is on record?
Its IC50 is greater than 10 µM.

Which IC50 [2] does the source give for `CCN[C@H](CC(=O)N1CC2CCC(C1)N2c1nc(N)c2cc(OC)c(OC)c(F)c2n1)c1ccc(C#N)cc1` [Compound 16, 4-((1R)-3-(8-(4-Amino-8-fluoro-6,7-dimethoxyquinazolin-2-yl)-3,8-diazabicyclo[3.2.1]octan-3-yl)-1-(ethylamino)-3-oxopropyl)benzonitrile] here?
The IC50 was less than 1 µM.

`CCN[C@H](CC(=O)N1CC=C(c2nc(N)c3cc(OC)c(OC)c(F)c3n2)CC1)c1ccc(C#N)cc1` [Compound 17, (R)-4-(3-(4-(4-Amino-8-fluoro-6,7-dimethoxyquinazolin-2-yl)-3,6-dihydropyridin-1(2H)-yl)-1-(ethylamino)-3-oxopropyl)benzonitrile] was tested. Which IC50 [2] did it give?
Its IC50 is less than 1 µM.

`COc1cc2c(N)nc(C3=CCN(C(=O)C[C@@H]4C[C@@H]5CCCC[C@@H]5N4)CC3)nc2c(F)c1OC` [Compound 18, 1-(4-(4-Amino-8-fluoro-6,7-dimethoxyquinazolin-2-yl)-3,6-dihydropyridin-1(2H)-yl)-2-((2S,3aS,7aS)-octahydro-1H-indol-2-yl)ethan-1-one TFA salt] was tested. Which IC50 [2] did it give?
The IC50 was less than 1 µM.

`COc1cc(C)c2[nH]ccc2c1CN1CCC(F)(F)CC1c1ccc(C(=O)O)cc1` (stereo not shown) [Compound 19, 4-(4,4-difluoro-1-((5-methoxy-7-methyl-1H-indol-4-yl)methyl)piperidin-2-yl)benzoic Acid] was tested. Which IC50 [3] did it give?
The IC50 was greater than 10 µM.

Which IC50 [3] does the source give for `COc1cc(C)c2[nH]ccc2c1CN1CCCC[C@H]1C1CCC(C(=O)O)CC1` (stereo partly drawn) [Compound 20, (1R,4S)-4-((S)-1-((5-Methoxy-7-methyl-1H-indol-4-yl)methyl)piperidin-2-yl) Cyclohexanecarboxylic Acid] here?
The IC50 was greater than 10 µM.

For `COc1cc(C)c2[nH]ncc2c1CN1CC[C@@H](C)C[C@H]1c1ccc(C(=O)O)cc1` [Compound 21, 4-((2S, 4R)-1-((5-Methoxy-7-methyl-1H-indazol-4-yl) Methyl)-4-methylpiperidin-2-yl) Benzoic Acid], which IC50 [3] is on record?
The IC50 was greater than 10 µM.

Which IC50 [3] does the source give for `COc1cc(C)c2[nH]ccc2c1CN1CC[C@@H](C)C[C@H]1c1ccc(S(C)(=N)=O)cc1` (stereo partly drawn) [Compound 22, 5-Methoxy-7-methyl-4-(((2 S,4R)-4-methyl-2-(4-(S-methylsulfonimidoyl)phenyl)piperidin-1-yl)methyl)-1H-indole] here?
The IC50 was less than 1 µM.

For `COc1cc(C)c2[nH]ccc2c1CN1CC[C@H](C)C[C@@H]1c1ccc(S(C)(=N)=O)cc1` (stereo partly drawn) [Compound 23, 5-Methoxy-7-methyl-4-(((2R,4S)-4-methyl-2-(4-(S-methylsulfonimidoyl)phenyl)piperidin-1-yl)methyl)-1H-indole], which IC50 [3] is on record?
Its IC50 is greater than 10 µM.
